Source: patent publication US8853224B2 (priority 2006, dated 2014)

target: Plasmodium falciparum purine nucleoside phosphorylase (PfPNP) (Plasmodium falciparum (isolate 3D7), UniProt Q8I3X4); experiment: biochemical
Source text: For inhibitors without slow-onset properties, fits to the same equation were made, but using initial reaction rates.

| SMILES | Kd [µM] |
| --- | --- |
| O=c1[nH]cnc2c(CNC[C@@H](O)[C@H](O)CO)c[nH]c12 (racemic) [Example 20.5, 7-(((2RS,3RS)-2,3,4-trihydroxybutylamino)methyl)-3H-pyrrolo[3,2-d]pyrimidin-4(5H)-one] | 32 ± 2 |
| O=c1[nH]cnc2c(CNCC(CO)CO)c[nH]c12 [Example 8, 7-((3-hydroxy-2-(hydroxymethyl)propylamino)methyl)-3H-pyrrolo[3,2-d]pyrimidin-4(5H)-one] | 0.21 ± 0.05 |
| O=c1[nH]cnc2c(CNC[C@H](O)[C@H](O)CO)c[nH]c12 [Example 19.3, 7-(((2S,3R)-2,3,4-trihydroxybutylamino)methyl)-3H-pyrrolo[3,2-d]pyrimidin-4(5H)-one] | 12 ± 2 |
